Experimental data published in the CATMoS acute toxicity set (Mansouri et al. 2021).

Test: GHS categories as the set defines them, by LD50: 1 up to 5, 2 up to 50, 3 up to 300, 4 up to 2000, 5 above 2000 mg/kg
Settings: rat; in vivo; po

CCO[Si](C)(CCCN)OCC
GHS category: 5

O=C(O)CNC(c1ccccc1)c1ccc(Cl)c(Cl)c1 (stereo not drawn)
GHS category: 4

CCOC(=O)c1cc(Br)ccc1OC(N)=O
GHS category: 5

COC(=O)C(CCn1cnc2c(Cl)nc(N)nc21)C(=O)OC
GHS category: 5

CCC(=O)OC1CC(=O)OC(C)CC=CC=CC(OC(C)=O)C(C)CC(CC=O)C(OC2OC(C)C(OC3CC(C)(OC(C)=O)C(OC(=O)CC)C(C)O3)C(N(C)C)C2O)C1OC (stereo not drawn)
GHS category: 5

COc1ccc2c(c1)CCN(c1ccccc1)C2c1ccccc1 (stereo not drawn)
GHS category: 4

C[Si](Cl)(Cl)C1CCCCC1
GHS category: 5

CCOC(=O)C(C)OC(=O)c1cc(Oc2ccc(C(F)(F)F)cc2Cl)ccc1[N+](=O)[O-] (stereo not drawn)
GHS category: 5

Clc1ccc(C(c2ccccc2Cl)C(Cl)Cl)cc1 (stereo not drawn)
GHS category: 5

Cc1ccc(C(=O)Oc2ccc(C(O)CNC(C)(C)C)cc2OC(=O)c2ccc(C)cc2)cc1 (stereo not drawn)
GHS category: 5

COc1ccc2c(c1)CCN(c1ccccc1)C2c1cccc(Br)c1 (stereo not drawn)
GHS category: 4

COc1ccc2c(c1)CCN(c1ccccc1)C2c1ccc(Br)cc1 (stereo not drawn)
GHS category: 4

Nc1c[n+](N2CCOCC2)no1
GHS category: 4

CCCN(CC)CC1COC2(CCC(C(C)(C)C)CC2)O1 (stereo not drawn)
GHS category: 4

CO[Si](C)(OC)OC
GHS category: 5

CCCCCCCCCC=CC=O
GHS category: 5

COC(=O)CCN[N+](C)(C)C
GHS category: 3

FC(F)(F)OC(Cl)C(F)(Cl)Cl (stereo not drawn)
GHS category: 5

CO[C@]12CC[C@@]3(C[C@@H]1[C@](C)(O)C(C)(C)C)[C@H]1Cc4ccc(O)c5c4[C@@]3(CCN1CC1CC1)[C@H]2O5
GHS category: 4

CCO[Si](OCC)(OCC)N(CC)CC
GHS category: 4

C=CC(=C)CCC=C(C)C
GHS category: 5

CCS(=O)(=O)CCC(=O)NNC(=O)N1Cc2ccccc2Oc2ccc(Cl)cc21
GHS category: 5

COc1ccc2c(c1)CCN(c1ccccc1)C2c1ccccc1Cl (stereo not drawn)
GHS category: 4

NC(=O)NC1CCC(=O)c2sccc21 (stereo not drawn)
GHS category: 5

C[C@@H]1CN2CC(=O)Nc3ccc(Cl)cc3[C@]2(c2ccccc2)O1
GHS category: 5

CNC(=O)c1cnc2cccc(C)n2c1=O
GHS category: 3

O=C(c1ccccc1)C1(O)CCCCC1
GHS category: 5

CS(=O)(=O)OC[C@@H](OS(C)(=O)=O)[C@@H](O)[C@H](O)[C@@H](COS(C)(=O)=O)OS(C)(=O)=O
GHS category: 5

Cc1onc(-c2ccccc2)c1C(=O)N[C@@H]1C(=O)N2[C@@H]1SC(C)(C)[C@@H]2C(=O)O
GHS category: 5

N#CNC(=N)NCCCCCCNC(=N)NC#N
GHS category: 5

Cc1cccc(Nc2ccncc2S(=O)(=O)NC(=O)NC(C)C)c1
GHS category: 5

O=C1OC(=O)c2ccc3c4ccc5c6c(ccc(c7ccc1c2c73)c64)C(=O)OC5=O
GHS category: 5

CCOc1nn(-c2cccc(C(F)(F)F)c2)c2ncccc12
GHS category: 4

CCS(=O)c1c(C#N)nn(-c2c(Cl)cc(C(F)(F)F)cc2Cl)c1N (stereo not drawn)
GHS category: 5

CCCCOC(=O)C1(O)c2ccccc2-c2ccccc21
GHS category: 5

COC(=O)CCCCC(=O)OC
GHS category: 5

CCCC1CCOC(C)S1 (stereo not drawn)
GHS category: 5

O=c1c2cc(Oc3ccc(Cl)cc3)ccc2nnn1Cc1cccnc1
GHS category: 5

O=C1CC(c2ccccc2)c2cc(Br)ccc2O1 (stereo not drawn)
GHS category: 5

OCC1CN2CCN1CC2 (stereo not drawn)
GHS category: 5

COc1cc(C)c(C(=O)c2c(OC)ccc(Br)c2C)c(OC)c1OC
GHS category: 5

COc1ccc(Br)cc1
GHS category: 4

CCC1(CC)COP(=S)(N(SN(C)C(=O)ON=C(C)SC)C2CCCCC2)OC1
GHS category: 5

CCC(C(=O)Oc1cc(C)ccc1C(C)C)c1ccc(-c2ccccc2)cc1 (stereo not drawn)
GHS category: 5

O=C(O)CC[C@@H](C(=O)O)N(CC(=O)O)CC(=O)O
GHS category: 5

CCC(=O)OC(C)(C)Cc1ccccc1
GHS category: 5

O=S(=O)(O)CCO
GHS category: 5

CCOC(=O)CP(=O)(OCC)OCC
GHS category: 5

OC[C@@H](O)[C@@H](O[C@@H]1O[C@H](CO)[C@H](O)[C@H](O)[C@H]1O)[C@H](O)[C@@H](O)CO
GHS category: 5

CC[N+](C)(CC)CCSC1=Nc2ccccc2N=C(c2ccc(Sc3ccccc3)cc2)C1
GHS category: 5

CC(C)C[C@H](NC(=O)CNC(=O)[C@H](Cc1ccc(O)cc1)NC(=O)[C@H](CO)NC(=O)[C@H](Cc1c[nH]c2ccccc12)NC(=O)[C@H](Cc1cnc[nH]1)NC(=O)[C@@H]1CCC(=O)N1)C(=O)N[C@@H](CCCN=C(N)N)C(=O)N1CCC[C@H]1C(=O)NCC(N)=O
GHS category: 5

O=C(Nc1cccc2c(=O)c3c(ccc4c5cc(NC(=O)c6ccccc6)c6c(=O)c7ccccc7c(=O)c6c5[nH]c43)c(=O)c12)c1ccccc1
GHS category: 5

Nc1ccc(C(=O)NCCN2CCN(c3ccccn3)CC2)cc1
GHS category: 5

COc1ccc(CC(C)NCC(O)c2ccc(O)c(CO)c2)cc1 (stereo not drawn)
GHS category: 4

CCCCCCCCCCCCCCCC(=O)O[C@@H]1C[C@@H](C(=O)O)N(C(=O)CCCCCCCCCCCCCCC)C1
GHS category: 5

CC[N+](CC)(CC)CCOc1cccc(OCC[N+](CC)(CC)CC)c1OCC[N+](CC)(CC)CC
GHS category: 4

O=C=NS(=O)(=O)c1ccccc1C(F)(F)F
GHS category: 4

C=CC(=O)OCCN(C)S(=O)(=O)C(F)(F)C(F)(F)C(F)(F)C(F)(F)F (racemic)
GHS category: 5

CC(=O)Nc1ccc(S(=O)(=O)O)c2cc(S(=O)(=O)O)c(/N=N/c3ccc(/N=N/c4ccc(S(=O)(=O)O)cc4)c4ccc(S(=O)(=O)O)cc34)c(O)c12
GHS category: 5

CCCCOC(=O)[C@@H](C)Oc1ccc(Oc2ccc(C#N)cc2F)cc1
GHS category: 5

Clc1ccc(C2=NCOCS2)cc1
GHS category: 4

CCOC(=O)CC1(C)OCCO1
GHS category: 5

CC(=O)OC1C=C(C)C2CC(=C(C)C)CC2C(C)C1 (stereo not drawn)
GHS category: 5

CCOP(Oc1c(C)cc(C(C)(C)C)cc1C(C)(C)C)Oc1c(C)cc(C(C)(C)C)cc1C(C)(C)C
GHS category: 5

CC1=CC(=NNc2ccc(N)cc2)C=C(C)C1=O
GHS category: 5

CC(=O)O[C@]1(C(C)=O)CC[C@H]2[C@@H]3C=C(C)C4=CC(=O)CC[C@@H]4[C@H]3CC[C@@]21C
GHS category: 5

Nc1ccc(C(=O)c2ccccc2)cc1O
GHS category: 5

CCCCCCCCCCOC(C)=O
GHS category: 5

CCOC[C@H]1CO[C@@](Cn2cncn2)(c2cc3cc(Cl)cc(Cl)c3o2)O1
GHS category: 4

CN(CCOP(=O)(O)O)C(=N)N
GHS category: 5

CCOCC(C)OC(C)=O (stereo not drawn)
GHS category: 5

CC(C)c1ccc(C(C)C)cc1
GHS category: 5

COCc1cnc(C2=NC(C)(C(C)C)C(=O)N2)c(C(=O)O)c1 (stereo not drawn)
GHS category: 5

Cc1cc(C)c(C2=C(OC(=O)CC(C)(C)C)C3(CCCC3)OC2=O)c(C)c1
GHS category: 5

CS(=O)(=O)c1ccc(C(=O)C2C(=O)CCCC2=O)c(Cl)c1COCC(F)(F)F
GHS category: 5

CC(C)(C)c1ccc2oc(-c3ccc(-c4nc5cc(C(C)(C)C)ccc5o4)s3)nc2c1
GHS category: 5

S=C(SSSSSSC(=S)N1CCCCC1)N1CCCCC1
GHS category: 5

CO[C@H]1C=CO[C@@]2(C)Oc3c(C)c(O)c4c(O)c(c5c(nc6cc(C)ccn65)c4c3C2=O)NC(=O)C(C)=CC=C[C@H](C)[C@H](O)[C@@H](C)[C@@H](O)[C@@H](C)[C@H](OC(C)=O)[C@@H]1C
GHS category: 5
